This is an account of results in patent US11613531B2, “Inhibitors of RHO associated coiled-coil containing protein kinase” (Kadmon Corporation, LLC, priority 2017, dated 2023).

As usually defined, the IC50 is the concentration needed to halve the response being measured.

Assay [1] has as its target Recombinant ROCK2 (amino acids 1-552) (Homo sapiens (Human), UniProt O75116). Nature of the assay: Z′-Lyte kinase assay, ROCK2. It is filed as biochemical. Particulars: for inhibition at 0.5 µM: 0.5 μM compound; for inhibition at 0.5 µM / inhibition at 1 µM: read-out: ROCK2 % inh. @ [conc]; for inhibition at 1 µM: 1 μM compound. An outline of the steps:
(§1)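 IC50s derive from nonlinear curve fits over a 9-point, 2-fold dilution series, with single-point inhibition at 1 μM expressed relative to DMSO. Activity of truncated human ROCK1 (residues 1-535) and ROCK2 (residues 1-552) measured with the Z′-Lyte kinase format.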

Assay [2] has as its system ppMlc (T18/S19) levels in A7R5 cells. Nature of the assay: A7R5 in-cell ELISA (pMLC). The assay is classed as cell-based, Rat. The settings on record: Rattus norvegicus, A7R5, A7R5 cells; for inhibition at 1 µM: 1 μM compound; for inhibition at 1 µM / inhibition at 10 µM: read-out: pMLC % inh A7R5 @ [conc]; for inhibition at 10 µM: 10 μM compound. An outline of the steps:
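Cellular IC50 came from a nonlinear regression fit of ppMlc (T18/S19) signal, read by colorimetric in-cell ELISA on fixed cells. Rat A7R5 aortic smooth muscle cells had been exposed for 90 min to compounds in 9-point 2-fold serial dilution, 24 h after seeding.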
For orientation: In an ELISA, binding on a coated surface is turned into a signal by an enzyme label.

In assay [3] the test system is human ACTA2 gene promoter luciferase reporter in NIH3T3 cells. Nature of the assay: NIH3T3 Acta2-promoter driven-luciferase assay. The assay is classed as cell-based. The settings on record: NIH3T3, 24 h, read-out: NIH3T3 Acta2-luc, IC50. The protocol: NIH3T3 Cells Acta2-Promoter Driven-Luciferase Assay.
A NIH3T3 cell line stably expressing a luciferase reporter driven by the human ACTA2 gene promoter (−1000-1 bp) was established (NIH3T3-Acta2-luciferase). The cells were plated to confluence and treated with the test compounds plus TGFβ1 for 24 hr. Cells were then lysed and luciferase activity was measured using the LightSwitch luciferase kit from Active Motif.
In vitro activities for the compounds were measured with Z′-lyte kinase kit (ThermoFisher Scientific). The percent inhibition rate was calculated by normalizing the kinase activity value obtained with 1 μM compound treatment against DMSO control value and then applied to the formula, [1-(compound/DMSO)]×100%. IC50s were calculated using the nonlinear regression curve fit function of the GraphPad Prism software with kinase activities data measured with 9 points 2-fold serial dilution of compounds treatment. In cell pMLC IC50s were calculated with data obtained from A7R5 cell experiments. A7R5 cells were treated with 9 points 2-fold serial dilution of compounds and ppMlc (T18/S19) levels were determined to calculate cellular IC50 values of the compounds using the nonlinear regression curve fit function of the GraphPad Prism software. NIH3T3 cells stably expressing ACTA2-promoter-driven-luciferase were applied to measure ROCK compounds functional IC50s in cells. Cells were plated in 96 well plates to confluence and treated with 9 points serial dilution of compounds in combination with TGFβ1 for 24 hr. Luciferase activities were measured and compound's IC50s were calculated using the nonlinear regression curve fit function of the GraphPad Prism software.
ROCK inhibitors can be effectively rank ordered by ACTA2-promoter-driven-luciferase reporter cell assay. NIH3T3 cells stably expressing ACTA2-promoter-driven-luciferase were plated in 96 well plates to confluence and treated with 9 points serial dilution of compounds in combination with TGFβ1 for 24 hr. Luciferase activities were measured and compound's IC50s were calculated. By this assay multiple compounds of the invention gave IC50s under 200 nM.

Assay [4] has as its target Recombinant ROCK1 (amino acids 1-535) (Homo sapiens (Human), UniProt Q13464). Nature of the assay: Z′-Lyte kinase assay, ROCK1. The assay is classed as biochemical. An outline of the steps:
as §1

[5] abbreviates: NIH3T3 cells, plus TGFβ1 for 24 hr.
Where [6] appears, read: 9 points 2-fold serial dilution.

Like-named read-outs stand apart in the source and are kept apart here. Where only a bound is given, the exact number is not on record here.

Recombinant ROCK2 (amino acids 1-552), sequence (O75116 1-552): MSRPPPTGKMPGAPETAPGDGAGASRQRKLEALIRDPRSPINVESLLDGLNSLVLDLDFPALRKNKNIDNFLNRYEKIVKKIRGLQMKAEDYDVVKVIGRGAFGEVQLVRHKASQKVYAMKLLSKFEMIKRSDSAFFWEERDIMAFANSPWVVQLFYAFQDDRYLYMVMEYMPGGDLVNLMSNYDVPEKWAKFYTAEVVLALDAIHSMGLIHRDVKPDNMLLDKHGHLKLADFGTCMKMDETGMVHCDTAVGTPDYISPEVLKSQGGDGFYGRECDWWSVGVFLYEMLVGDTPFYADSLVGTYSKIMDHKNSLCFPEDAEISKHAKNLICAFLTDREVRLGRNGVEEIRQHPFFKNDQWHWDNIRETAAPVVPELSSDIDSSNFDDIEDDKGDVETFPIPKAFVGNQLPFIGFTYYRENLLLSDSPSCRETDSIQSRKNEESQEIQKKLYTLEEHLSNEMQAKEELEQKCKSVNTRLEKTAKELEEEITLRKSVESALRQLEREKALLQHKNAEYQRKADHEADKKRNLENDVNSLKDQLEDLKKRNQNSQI
Recombinant ROCK1 (amino acids 1-535), sequence (Q13464 1-535): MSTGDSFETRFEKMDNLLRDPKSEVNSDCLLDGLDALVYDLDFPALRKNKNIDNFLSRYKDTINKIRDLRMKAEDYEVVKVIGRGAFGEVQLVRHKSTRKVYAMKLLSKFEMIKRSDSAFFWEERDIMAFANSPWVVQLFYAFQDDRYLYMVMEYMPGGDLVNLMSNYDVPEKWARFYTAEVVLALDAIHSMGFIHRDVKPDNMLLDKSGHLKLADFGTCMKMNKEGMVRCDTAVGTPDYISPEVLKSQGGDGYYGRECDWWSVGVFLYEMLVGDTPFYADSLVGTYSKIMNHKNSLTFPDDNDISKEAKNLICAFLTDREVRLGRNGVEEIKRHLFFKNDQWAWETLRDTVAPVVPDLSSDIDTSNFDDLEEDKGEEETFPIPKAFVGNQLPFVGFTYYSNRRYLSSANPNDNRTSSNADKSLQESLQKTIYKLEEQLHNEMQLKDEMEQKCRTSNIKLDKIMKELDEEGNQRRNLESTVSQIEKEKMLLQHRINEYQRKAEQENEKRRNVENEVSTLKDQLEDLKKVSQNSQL

In the case of `CCOC(=O)[C@H]1N[C@@H]2C[C@@H]1CN(c1ncc(Cl)c(Nc3ccc4[nH]ncc4c3)n1)C2` (stereo in doubt) [Example 326, Ethyl 3-(4-((1H-indazol-5-yl)amino)-5-chloropyrimidin-2-yl)-3,6-diazabicyclo[3.2.1]octane-7-carboxylate], the IC50 in assay [1] was 0.305 µM; in assay [2], 6290 nM; in assay [3] (with TGFβ1, 24 hr), over 10 µM. Besides, in assay [1], the inhibition at 0.5 µM was 64%.
For `c1cc(-c2ccc(Nc3nc(N4C5CCC4CNC5)nc4c3COCC4)cc2)ccn1` [Example 37, 2-(3,8-diazabicyclo[3.2.1]octan-8-yl)-N-(4-(pyridin-4-yl)phenyl)-7,8-dihydro-5H-pyrano[4,3-d]pyrimidin-4-amine], the IC50 in assay [2] is 7060 nM; in assay [3] (with TGFβ1, 24 hr), over 10 µM.
Regarding `c1cc(Nc2ccc3[nH]ncc3c2)nc(N2CC[C@@H]3NC[C@@H]3C2)n1` [Example 82, N-(2-((1R,6S)-3,7-diazabicyclo[4.2.0]octan-3-yl)pyrimidin-4-yl)-1H-indazol-5-amine], the IC50 was determined as 0.012 µM in assay [1]; 572 nM in assay [2]; 3.42 µM in assay [3] (with TGFβ1, 24 hr). In addition, the inhibition at 1 µM in assay [2] amounted to 42.5%.
Consider `Cc1cnc(N2CCNC(C(C)C)C2)nc1Nc1ccc2[nH]ncc2c1` (centres unmarked) [Example 101, N-(2-(3-isopropylpiperazin-1-yl)-5-methylpyrimidin-4-yl)-1H-indazol-5-amine], for which, in assay [2], the inhibition at 10 µM came to 19.2%. The IC50 in assay [3] (setting [5]) was 7.53 µM.
`Cc1cc(Nc2ccc3[nH]ncc3c2)nc(N2CCNCC(C)C2)n1` (centres unmarked) [Example 118, N-(6-methyl-2-(6-methyl-1,4-diazepan-1-yl)pyrimidin-4-yl)-1H-indazol-5-amine]: the inhibition at 1 µM in assay [1] came to 95.6%; in assay [2], 32.9%. The concentration for half-maximal inhibition (IC50) is 0.09 µM in assay [1] (setting [6]), 382 nM in assay [2] (ppMlc (T18/S19)) and 3.73 µM in assay [3] (setting [5]).
As for `Cc1cc(Nc2ccc3[nH]ncc3c2)nc(N2CC3CNC(C3)C2)n1` (centres unmarked) [Example 129, N-(2-(3,6-diazabicyclo[3.2.1]octan-3-yl)-6-methylpyrimidin-4-yl)-1H-indazol-5-amine], the IC50 in assay [1] was 0.018 µM; in assay [2] it was 377 nM; in assay [3] (with TGFβ1, 24 hr), 2.92 µM. The inhibition at 1 µM in assay [1] was 101%; in assay [2], 50.6%.
On to `Cc1cc(Nc2ccc3[nH]ncc3c2)nc(N2CCC3NCC3C2)n1` (centres unmarked) [Example 135, N-(2-(3,7-diazabicyclo[4.2.0]octan-3-yl)-6-methylpyrimidin-4-yl)-1H-indazol-5-amine], for which the IC50 in assay [1] came to 0.0097 µM; in assay [2] it was 400 nM; in assay [3] (with TGFβ1, 24 hr) it was 2.07 µM. The inhibition at 1 µM in assay [2] turned out to be 48.4%.
Consider `Fc1cnc(N2CC3CCC2CN3)nc1Nc1ccc2[nH]ncc2c1` (centres unmarked) [Example 154, N-(2-(2,5-diazabicyclo[2.2.2]octan-2-yl)-5-fluoropyrimidin-4-yl)-1H-indazol-5-amine], for which the inhibition at 1 µM in assay [1] is 98.5%; in assay [2], 36.2%. Moreover, the IC50 in assay [1] (setting [6]) was determined as 0.245 µM; in assay [2] (ppMlc (T18/S19)) it was 433 nM; in assay [3] (setting [5]) it was 2.91 µM.
Take `Fc1cnc(N2CC3CNC(C3)C2)nc1Nc1ccc2[nH]ncc2c1` (centres unmarked) [Example 166, N-(2-(3,6-diazabicyclo[3.2.1]octan-3-yl)-5-fluoropyrimidin-4-yl)-1H-indazol-5-amine]: the inhibition at 1 µM in assay [1] amounted to 100%; in assay [2] it was 34.3%. Moreover, the IC50 in assay [2] worked out at 259 nM; in assay [3] (with TGFβ1, 24 hr), 2.04 µM.
On the same counts, the results for `Fc1cnc(N2CCC3CNCC3CC2)nc1Nc1ccc2[nH]ncc2c1` (centres unmarked) [Example 169, N-(5-fluoro-2-(octahydropyrrolo[3,4-d]azepin-6(1H)-yl)pyrimidin-4-yl)-1H-indazol-5-amine] are 99.5%, 30.9%, 395 nM and 1.83 µM.
As for `Fc1cnc(N2CCC3NCC3C2)nc1Nc1ccc2[nH]ncc2c1` (centres unmarked) [Example 170, N-(2-(3,7-diazabicyclo[4.2.0]octan-3-yl)-5-fluoropyrimidin-4-yl)-1H-indazol-5-amine], the IC50 in assay [1] was 0.027 µM; in assay [2], 274 nM; in assay [3] (with TGFβ1, 24 hr) it was 0.572 µM. The inhibition at 1 µM in assay [1] is 99.1%; in assay [2], 31.5%.
`Cc1cc(Nc2ccc3[nH]ncc3c2)nc(N2CCNCC2)n1` [Example 205, N-(6-methyl-2-(piperazin-1-yl)pyrimidin-4-yl)-1H-indazol-5-amine]: the half-inhibitory concentration (IC50) in assay [1] (setting [6]) came out at 0.061 µM; in assay [2] (ppMlc (T18/S19)) it was 415 nM; in assay [3] (setting [5]), 1.28 µM. The inhibition at 10 µM in assay [2] was 55%.
With `Cc1cc(Nc2ccc3[nH]ncc3c2)nc(N2CC3CC2CN3)n1` (centres unmarked) [Example 211, N-(2-(2,5-diazabicyclo[2.2.1]heptan-2-yl)-6-methylpyrimidin-4-yl)-1H-indazol-5-amine], the inhibition at 1 µM in assay [1] came to 104%; in assay [2], 35.8%. The IC50 amounted to 66 nM in assay [2] (ppMlc (T18/S19)) and 0.437 µM in assay [3] (setting [5]).
In the case of `CC1CNCCN1c1ncc(F)c(Nc2ccc3[nH]ncc3c2)n1` (centres unmarked) [Example 216, N-(5-fluoro-2-(2-methylpiperazin-1-yl)pyrimidin-4-yl)-1H-indazol-5-amine], the IC50 is 0.07 µM in assay [1] (setting [6]), 517 nM in assay [2] (ppMlc (T18/S19)) and 1.38 µM in assay [3] (setting [5]). Further, in assay [2], the inhibition at 1 µM was found to be 42.6%.
The like results for `Fc1cnc(N2C3CCC2CNC3)nc1Nc1ccc2[nH]ncc2c1` [Example 221, N-(2-(3,8-diazabicyclo[3.2.1]octan-8-yl)-5-fluoropyrimidin-4-yl)-1H-indazol-5-amine] were, in that order, 0.0037 µM, 50 nM, 0.243 µM and 39.6%.
`CN1CCc2c(nc(N3C4CNCC3C4)nc2Nc2ccc3[nH]ncc3c2)C1` [Example 313, 2-(3,6-diazabicyclo[3.1.1]heptan-6-yl)-N-(1H-indazol-5-yl)-7-methyl-5,6,7,8-tetrahydropyrido[3,4-d]pyrimidin-4-amine]: the inhibition at 0.5 µM worked out at 94% in assay [4] (0.5 μM compound, read-out: ROCK1 % inh. @ [conc]) and 99% in assay [1]. In addition, the figures for the IC50 in assay [1] and in assay [2] were 0.014 µM and 3030 nM, respectively.
Consider `CNc1cc(Nc2ccc3[nH]ncc3c2)nc(N2C3CCC2CNC3)n1` [Example 329, 2-(3,8-diazabicyclo[3.2.1]octan-8-yl)-N4-(1H-indazol-5-yl)-N6-methylpyrimidine-4,6-diamine], for which the IC50 in assay [1] is 0.0018 µM; in assay [3] (with TGFβ1, 24 hr), 0.09 µM.
On the same counts, the results for `CN(C)c1cc(Nc2cc3cn[nH]c3cc2F)nc(N2C3CCC2CNC3)n1` [Example 331, 2-(3,8-diazabicyclo[3.2.1]octan-8-yl)-N4-(6-fluoro-1H-indazol-5-yl)-N6,N6-dimethylpyrimidine-4,6-diamine] are 0.0059 µM and 0.318 µM.
With `c1cncc(-c2cccc(Nc3ccnc(N4CCNCC4)n3)c2)c1` [Example 346, 2-(piperazin-1-yl)-N-(3-(pyridin-3-yl)phenyl)pyrimidin-4-amine], the IC50 in assay [4] and in assay [1] was over 10 µM in each case. Moreover, the inhibition at 10 µM in assay [2] stood at 12.3%.
